From patent publication US8067424B2, “Selective inhibitors for cyclin-dependent kinases” (Emory University, priority 2007, dated 2011)

Columns and labels:
MCF-7 = experiment: Growth assay (SRB, 72 hours); type: cell-based; settings: MCF-7, 72 hours; for IC50 / CC50: Homo sapiens, MCF7; for IC50: read-out: Growth Inhibition MCF7 IC50; for CC50: read-out: Growth Inhibition MCF7 LC50
Procedure: Growth assay: The cell lines (MCF-7 and MDA-MB-231; purchased from ATCC, USA) were routinely passaged in Dulbecco's Modified Eagle's Medium (DMEM), supplemented with 10% fetal calf serum (FCS) and kept in a 37° C. incubator with 5% CO2. For the growth assay, 6000 cells were seeded into each well of 96-well plates in DMEM containing 10% FCS. Compounds prepared in DMSO were added to the medium at concentrations ranging from 0.4-100 μM. The cells were incubated for a further 72 hours, at which time they were fixed by the addition of 100 μl/well of ice-cold 40% TCA. The plates were left for 1 hour, washed in water and 100 μl of 0.4% (w/v) sulphorhodamine (SRB; Sigma-Aldrich, UK) prepared in 1% acetic acid was added. Plates were washed in 1% acetic acid to remove excess SRB reagent, air dried and bound dye was solubilized by the addition of 100 μl of 10 mM Tris base. The plates were read at 492 nm using a plate reader.

CDK 5 = CDK 5 (Homo sapiens, UniProt Q00535); experiment: CDK5 in vitro kinase inhibition (protocol similar to Example 14); type: biochemical; settings: 100 nM; mean of three (standard deviation); read-out: CDK5 % remaining kinase activity after incubation with 100 nM of compound
Procedure: (§1) Prepared test compounds, prepared at concentrations of 1000, 100, 10, 1 and 0.1 μM. Diluted 1 in 40 in ddH2O and added 1 μl of test compound or DMSO (controls). • 3. Incubated at 30° C. for 30 mins in a water bath. • 4. Added 10 µl of ATP […] per reaction to get a final concentration of 2 μM ATP. • 5. Made up to 25 μl total volume with ddH2O • 6. Incubated for 20 min at 30° C. in a water bath • 7. Used the PKLight Kinase assay (Cambrex, UK), add to each reaction 10 μl of stop reaction and mix thoroughly. Incubated at room temp for 10 min. • 8. Added 20 μ1 Luciferase reaction mixture (Cambrex, UK) per reaction, and further incubated at room temp for 10 mins and determined luciferase activities according to manufacturer's methods. Kinase reactions were added to 96 well microplates and luciferase activities determined using a Packard TopCount NXT™ luminescent counter (TopCount 9904). The luminometer was programmed to take a read time of 0.1 integrated reading and emission of light was detectable at 560 nm. • 9. All kinase inhibition assays were carried out in triplicate. As the bioluminescent signal is inversely proportional to kinase activity, all values were deducted from the no enzyme control. These values were then plotted utilizing the enzyme control as a reference to 100% activity and compared to all other values.
(§2) This example provides in vitro kinase inhibition data for various compounds within the scope of the invention versus CDK 2, CDK 4, CDK, 5, CDK 7 and CDK 9. The protocol was similar to that shown in Example 14 Inhibition of the protein kinases was performed in triplicate using each compound at 100 nM.
(§3) This example provides in vitro kinase inhibition data for various compounds within the scope of the invention versus CDK 2, CDK 4, CDK, 5, CDK 7 and CDK 9.

CDK2/cyclin A complex = molecular target: T1, CDK2/cyclin A complex (Homo sapiens, UniProt P24941); experiment: CDK2/cyclin A kinase assay (as for CDK7); type: biochemical; settings: for remaining activity at 0.1 µM: 100 nM, mean of three (standard deviation), read-out: CDK2 % remaining kinase activity after incubation with 100 nM of compound
T1 construct: purchased Proqinase GmbH, Germany
Procedure: as §1
(§4) Inhibition of CDK2 was assessed using 50 ng CDK2/cyclin A complex (Proqinase GmbH, Germany), as above for CDK7 Inhibition of CDK9 was assessed using 100 ng CDK9/cyclin T complex (Proqinase GmbH, Germany), as above for CDK7.

CAK (CDK7) = CAK (CDK7) (Homo sapiens, UniProt P50613); experiment: 32P incorporation kinase assay, CAK
CDK4 [1] = molecular target: T2, CDK4 (Homo sapiens, UniProt P11802); experiment: CDK4 in vitro kinase inhibition (protocol similar to Example 14); type: biochemical; settings: for remaining activity at 0.1 µM: 100 nM, mean of three (standard deviation), read-out: CDK4 % remaining kinase activity after incubation with 100 nM of compound; for IC50: Table 7, mean of three experiments
Procedure: as §1, §2, §3

CDK9/cyclin T complex = molecular target: T3, CDK9/cyclin T complex (Homo sapiens, UniProt P50750); experiment: CDK9/cyclin T kinase assay (as for CDK7); type: biochemical; settings: 100 nM; mean of three (standard deviation); read-out: CDK9 % remaining kinase activity after incubation with 100 nM of compound
T3 construct: purchased Proqinase GmbH, Germany
Procedure: as §1, §4

CDK4 [2] = molecular target: T2, CDK4; experiment: 32P incorporation kinase assay, CDK4
MCF-7 cell line = experiment: cells; type: cell-based; settings: Homo sapiens, MCF-7, SRB assay, 24 hours; for LC50 (concentration causing 50% net cell kill) / IC (total growth inhibition): MCF7, 24 h; for IC (total growth inhibition): read-out: TGI; for IC50: MCF7, mean of three experiments, read-out: IC50

T2 sequence (P11802 whole entry): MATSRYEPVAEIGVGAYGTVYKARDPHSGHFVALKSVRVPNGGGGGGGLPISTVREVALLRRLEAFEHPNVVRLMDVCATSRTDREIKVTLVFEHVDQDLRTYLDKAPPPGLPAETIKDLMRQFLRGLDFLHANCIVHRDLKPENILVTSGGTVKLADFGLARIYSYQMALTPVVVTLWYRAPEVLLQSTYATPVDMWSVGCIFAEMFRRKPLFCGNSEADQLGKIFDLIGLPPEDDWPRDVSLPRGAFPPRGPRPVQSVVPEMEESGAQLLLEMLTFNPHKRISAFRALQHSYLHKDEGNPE
T2 sequence (P24385 whole entry partner): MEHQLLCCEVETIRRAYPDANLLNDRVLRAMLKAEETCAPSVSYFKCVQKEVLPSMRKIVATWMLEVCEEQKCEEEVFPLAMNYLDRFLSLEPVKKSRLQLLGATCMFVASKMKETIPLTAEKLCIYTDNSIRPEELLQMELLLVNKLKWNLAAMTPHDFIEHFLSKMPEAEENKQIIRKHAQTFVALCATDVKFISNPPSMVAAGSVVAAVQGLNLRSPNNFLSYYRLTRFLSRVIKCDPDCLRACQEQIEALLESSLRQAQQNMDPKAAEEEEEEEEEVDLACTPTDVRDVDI
CAK (CDK7), sequence (P50613 whole entry): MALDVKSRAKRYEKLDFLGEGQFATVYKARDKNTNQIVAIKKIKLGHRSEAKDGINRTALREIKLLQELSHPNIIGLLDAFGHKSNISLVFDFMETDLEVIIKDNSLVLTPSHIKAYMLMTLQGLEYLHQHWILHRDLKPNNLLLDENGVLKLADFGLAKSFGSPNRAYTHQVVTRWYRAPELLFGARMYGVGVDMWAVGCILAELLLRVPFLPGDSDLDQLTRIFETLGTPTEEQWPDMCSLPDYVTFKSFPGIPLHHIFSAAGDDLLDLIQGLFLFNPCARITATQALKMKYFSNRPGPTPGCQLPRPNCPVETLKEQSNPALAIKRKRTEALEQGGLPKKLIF
CAK (CDK7), sequence (P51946 whole entry partner): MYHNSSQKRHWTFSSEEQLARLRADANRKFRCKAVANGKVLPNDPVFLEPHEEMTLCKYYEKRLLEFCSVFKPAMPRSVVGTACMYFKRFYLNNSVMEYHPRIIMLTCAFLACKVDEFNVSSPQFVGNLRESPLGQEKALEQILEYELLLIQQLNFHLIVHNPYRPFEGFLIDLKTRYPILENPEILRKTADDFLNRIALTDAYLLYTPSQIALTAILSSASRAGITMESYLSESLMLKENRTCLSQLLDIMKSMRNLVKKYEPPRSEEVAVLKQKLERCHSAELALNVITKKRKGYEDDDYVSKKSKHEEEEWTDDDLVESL
CAK (CDK7), sequence (P51948 whole entry partner): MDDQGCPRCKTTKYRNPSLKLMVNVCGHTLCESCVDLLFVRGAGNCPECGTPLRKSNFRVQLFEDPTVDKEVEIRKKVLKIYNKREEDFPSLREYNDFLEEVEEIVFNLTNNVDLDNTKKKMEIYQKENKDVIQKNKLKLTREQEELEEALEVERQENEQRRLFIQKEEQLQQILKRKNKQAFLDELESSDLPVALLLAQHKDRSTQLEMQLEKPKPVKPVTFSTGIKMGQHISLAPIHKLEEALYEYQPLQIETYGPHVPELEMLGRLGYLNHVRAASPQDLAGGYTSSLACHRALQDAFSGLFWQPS
T3 sequence (P50750 whole entry): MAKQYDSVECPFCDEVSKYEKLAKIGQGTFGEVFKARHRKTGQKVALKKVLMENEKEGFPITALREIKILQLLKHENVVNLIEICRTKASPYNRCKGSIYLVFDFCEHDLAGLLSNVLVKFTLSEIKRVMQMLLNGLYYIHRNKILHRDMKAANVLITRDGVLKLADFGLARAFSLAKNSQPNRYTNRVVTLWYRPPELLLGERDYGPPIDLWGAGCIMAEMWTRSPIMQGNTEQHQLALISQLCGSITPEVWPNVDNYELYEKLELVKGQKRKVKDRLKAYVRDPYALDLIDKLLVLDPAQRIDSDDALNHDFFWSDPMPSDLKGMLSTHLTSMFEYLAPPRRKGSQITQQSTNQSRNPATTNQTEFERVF
T3 sequence (O60563 whole entry partner): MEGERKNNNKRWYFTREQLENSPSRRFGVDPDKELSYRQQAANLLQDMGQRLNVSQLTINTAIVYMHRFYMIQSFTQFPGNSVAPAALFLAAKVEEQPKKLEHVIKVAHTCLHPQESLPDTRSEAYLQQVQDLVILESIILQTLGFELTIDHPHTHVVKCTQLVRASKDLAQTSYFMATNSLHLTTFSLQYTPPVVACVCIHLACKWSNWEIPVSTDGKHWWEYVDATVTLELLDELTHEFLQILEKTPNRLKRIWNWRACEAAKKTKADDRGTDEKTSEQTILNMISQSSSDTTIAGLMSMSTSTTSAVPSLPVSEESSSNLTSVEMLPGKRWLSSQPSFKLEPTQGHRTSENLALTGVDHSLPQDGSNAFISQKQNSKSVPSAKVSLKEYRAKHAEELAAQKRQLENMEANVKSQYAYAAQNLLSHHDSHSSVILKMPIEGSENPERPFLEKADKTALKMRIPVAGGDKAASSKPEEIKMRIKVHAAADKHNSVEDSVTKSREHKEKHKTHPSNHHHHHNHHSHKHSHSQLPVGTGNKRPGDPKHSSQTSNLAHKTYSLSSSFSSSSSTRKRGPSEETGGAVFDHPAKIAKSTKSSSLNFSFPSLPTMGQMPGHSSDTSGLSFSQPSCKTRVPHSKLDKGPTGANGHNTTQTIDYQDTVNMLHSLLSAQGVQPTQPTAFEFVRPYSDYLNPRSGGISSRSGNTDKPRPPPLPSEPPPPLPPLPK
CDK 5, sequence (Q00535 whole entry): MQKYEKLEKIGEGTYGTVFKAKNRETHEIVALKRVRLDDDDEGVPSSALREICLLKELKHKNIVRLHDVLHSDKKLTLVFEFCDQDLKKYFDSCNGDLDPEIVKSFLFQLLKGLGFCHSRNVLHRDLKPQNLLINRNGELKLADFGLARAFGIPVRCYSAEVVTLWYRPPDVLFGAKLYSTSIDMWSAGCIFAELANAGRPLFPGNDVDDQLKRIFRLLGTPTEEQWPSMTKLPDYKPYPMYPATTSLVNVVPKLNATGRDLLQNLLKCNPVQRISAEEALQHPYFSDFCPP
CDK 5, sequence (Q15078 whole entry partner): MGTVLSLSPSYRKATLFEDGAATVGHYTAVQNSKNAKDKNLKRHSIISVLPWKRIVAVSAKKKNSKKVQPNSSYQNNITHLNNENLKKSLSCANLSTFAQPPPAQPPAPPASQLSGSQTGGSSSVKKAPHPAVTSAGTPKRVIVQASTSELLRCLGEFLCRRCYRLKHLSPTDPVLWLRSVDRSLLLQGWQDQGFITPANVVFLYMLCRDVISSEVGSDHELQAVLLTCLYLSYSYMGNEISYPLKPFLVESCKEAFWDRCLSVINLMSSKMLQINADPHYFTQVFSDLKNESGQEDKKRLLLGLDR

SMILES | IC50 (MCF-7) [µM] | CC50 (MCF-7) [µM] | Growth Inhibition MCF7 TGI (MCF-7) [µM] | remaining activity at 0.1 µM (CDK 5) [%] | remaining activity at 0.1 µM (CDK2/cyclin A complex) [%] | IC50 (CAK (CDK7)) [µM] | remaining activity at 0.1 µM (CDK4 [1]) [%] | IC50 (CDK4 [1]) [µM] | remaining activity at 0.1 µM (CDK9/cyclin T complex) [%] | IC50 (CDK4 [2]) [µM] | LC50 (concentration causing 50% net cell kill) (MCF-7 cell line) [µM] | IC (total growth inhibition) (MCF-7 cell line) [µM] | IC50 (MCF-7 cell line) [µM] | IC50 (CDK2/cyclin A complex; Table 7, mean of three experiments, read-out: CDK2 kinase inhibition in vitro (IC50)) [µM]
CC(C)c1cnn2c(NCc3ccccc3F)cc(NC(CO)CCCCCCCc3ccc(F)nc3)nc12 (stereo not shown) [ICEC0138] | 69 | > 100 | >100 | 98 | 100 | 0.046 | 92 | > 1 | 100 | > 1 |  |  |  | 
CC(C)c1cnn2c(NCc3ccccc3)cc(N[C@@H](CO)CCCCCCCc3ccc(F)nc3)nc12 [ICEC0141] | > 100 | 42 | >100 | 95 | 84 | 0.08 | 99 | > 1 | 95 | > 1 |  |  |  | 
CC(C)c1cnn2c(NCc3ccccc3)cc(NC(CO)CCCCCCc3ccccn3)nc12 (stereo not shown) [ICEC0159] | 87 | > 100 | >100 | 89 | 84 | 0.042 | 98 | > 1 | 100 | > 1 |  |  |  | 
CC(C)c1cnn2c(NCc3ccccc3F)cc(NC(CO)CCCCCCc3ccccn3)nc12 (stereo not shown) [ICEC0160] | 55 | > 100 | >100 | 92 | 97 | 0.044 | 99 |  | 100 | > 1 |  |  |  | 
CC(C)c1cnn2c(NCc3ccccc3F)cc(N[C@@H](CO)CCCCCCc3ncccn3)nc12 [ICEC0161] | 23 | > 100 | 36 | 92 | 71 | 0.055 | 99 | > 1 | 100 | > 1 |  |  |  | 
CC(C)c1cnn2c(NCc3ccccc3F)cc(NC(CO)CCCCCCCc3cncnc3)nc12 (stereo not shown) [ICEC0168] | > 100 | 35 | >100 | 97 | 83 | 0.12 | 96 | > 1 | 91 | > 1 | 25 | 55 | > 100 | < 0.1
CC(C)c1cnn2c(NCc3ccccc3)cc(NCCCCCCC#N)nc12 [ICEC0179] | 35 | > 100 | >100 | 94 | 52 | 0.02 | 99 | > 1 | 97 | > 1 | 16 | 26 | 44 | 
